# According to US4510130A, “Promoting animal and plant growth with leupeptin” (Genetic Diagnostics Corporation, priority 1983, dated 1985):
# Experiments:
# [1] = tested on: pea seedlings; experiment: Pea seedling growth (height) with leupeptin in watering; format: in vivo; details: 10 mg leupeptin in 5 ml water per plant per day to the soil
# Protocol: 20 pea seedlings 4 days after planting of seed and each containing an average of 5 leaves were divided into two matched groups. 5 ml of water per plant per day was supplied to the soil in which the control group was growing. The test group received the same 5 ml of water but 10 mg of leupeptin was dissolved therein. The lighting and other growth conditions were the same and the plant heights were measured daily. The first measurement was made on the day that the leupeptin-treated plants reached a height of about 1 cm, a practical minimum measuring height.
# [2] = tested on: Syrian hamsters; experiment: Hamster growth (body weight) with daily leupeptin injection; format: in vivo; details: for Hamster Weight: daily injection 0.8 mg leupeptin in 1 ml saline (about 20 mg/Kg per day)
# Protocol: 20 Syrian hamsters 3 weeks old and initially weighing an average of 40 grams each were subdivided into two groups. The groups were fed similarly. All animals received a daily injection of 1 ml of isotonic saline solution except that the saline solution administered to the test group had 0.8 mg of leupeptin dissolved therein, corresponding to about 20 mg/Kg per day based on the initial weight of the animals. The animals were weighed weekly and the results obtained were as follows: […]
structure (smiles),measurement,setting,value
"CC(=O)N[C@@H](CC(C)C)C(=O)N[C@@H](CC(C)C)C(=O)N[C@H](C=O)CCCNC(=N)N [Leupeptin, leupeptin]",Pea seedling height,[1]; Day 0,1 ± 0.2 cm
same,Pea seedling height,[1]; Day 1,1.5 ± 0.1 cm
same,Pea seedling height,[1]; Day 4,3.4 ± 0.2 cm
same,Pea seedling height,[1]; Day 6,5.2 ± 0.5 cm
same,Pea seedling height,[1]; Day 10,7.9 ± 0.5 cm
same,Pea seedling height,[1]; Day 12,9.2 ± 0.6 cm
same,Pea seedling height,[1]; Day 15,12.1 ± 0.8 cm
same,Hamster Weight,[2]; Weeks 3,47 ± 3 grams
same,Hamster Weight,[2]; Weeks 6,75 ± 5 grams
same,Hamster Weight,[2]; Weeks 9,87 ± 6 grams
same,Hamster Weight,[2]; Weeks 12,95 ± 9 grams
same,Hamster Weight,[2]; Weeks 15,105 ± 8 grams
same,Hamster Weight,[2]; Weeks 18,110 ± 8 grams
same,Hamster Weight,[2]; Weeks 21,115 ± 7 grams
same,Hamster Weight,[2]; Weeks 27,122 ± 10 grams
same,Hamster Weight,[2]; Weeks 32,130 ± 9 grams
same,Increase of hamster weight versus control,"[2]; at all stages of development, about 20 mg/Kg per day by injection",10-15%
same,Muscle mass of isolated muscles,[2]; muscles isolated from the treated hamsters,increased weight was attributable to a corresponding muscle mass increase
